According to ChEMBL document CHEMBL3585341, “-Heteroarylalkylcarbamates as inhibitors of fatty acid amide hydrolase (FAAH)” (Medchemcomm, 2014):
Calls of active or inactive are those of the source. The calls are words filed in the database; no cut-off is given here.

Key:
[1] = molecular target: T1, Fatty-acid amide hydrolase 1 (Rattus norvegicus, UniProt P97612); test: (§1) Inhibition of Sprague-Dawley rat brain microsomal FAAH using N-(2-hydroxyethyl)-4-pyren-1-ylbutanamide as substrate assessed as 4-pyren-1-ylbutanoic acid release preincubated for 10 mins with substrate followed by protein addition measured after 60 mins by reverse phase HPLC with fluorescence detection method
T1 sequence (P97612 whole entry): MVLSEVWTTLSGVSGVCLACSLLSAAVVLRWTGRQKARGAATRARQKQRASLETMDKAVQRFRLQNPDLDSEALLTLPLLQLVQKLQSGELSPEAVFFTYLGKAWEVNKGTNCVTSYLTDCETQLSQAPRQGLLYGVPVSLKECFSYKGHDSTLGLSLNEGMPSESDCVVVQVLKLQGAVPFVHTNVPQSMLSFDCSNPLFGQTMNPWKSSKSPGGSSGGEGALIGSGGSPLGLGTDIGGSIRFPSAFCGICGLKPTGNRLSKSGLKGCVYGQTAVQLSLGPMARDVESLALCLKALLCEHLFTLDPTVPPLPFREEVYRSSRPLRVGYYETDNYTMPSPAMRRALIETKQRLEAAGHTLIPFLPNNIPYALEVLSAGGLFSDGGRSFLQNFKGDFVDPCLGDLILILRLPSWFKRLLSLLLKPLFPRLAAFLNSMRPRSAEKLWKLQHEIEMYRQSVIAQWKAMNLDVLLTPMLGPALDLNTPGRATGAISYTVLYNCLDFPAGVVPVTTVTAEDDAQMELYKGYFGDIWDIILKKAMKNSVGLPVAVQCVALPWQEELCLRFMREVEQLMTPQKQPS

[2] = molecular target: T2, Monoglyceride lipase (Homo sapiens) (UniProt Q99685); test: Inhibition of human recombinant MAGL using […] 4-pyren-1-yl butanoate as substrate at 10 uM preincubated for 15 mins with substrate followed by protein addition measured after 45 mins by reverse phase HPLC with fluorescence detection method
T2 sequence (whole entry): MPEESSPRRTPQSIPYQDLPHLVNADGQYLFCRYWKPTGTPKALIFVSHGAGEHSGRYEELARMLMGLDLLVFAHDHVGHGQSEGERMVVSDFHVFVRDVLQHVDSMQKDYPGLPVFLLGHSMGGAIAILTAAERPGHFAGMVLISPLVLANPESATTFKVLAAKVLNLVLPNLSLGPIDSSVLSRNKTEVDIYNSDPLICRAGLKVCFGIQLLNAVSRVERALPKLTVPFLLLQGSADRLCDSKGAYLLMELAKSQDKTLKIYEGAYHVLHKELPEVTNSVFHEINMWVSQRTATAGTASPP

Sus scrofa = species: Sus scrofa; test: Inhibition of porcine platelet cPLA2alpha using co-vesicles consisting 1-stearoyl-2-arachidonoyl-sn-glycero-3-phosphocholine and 1,2-dioleoyl-sn-glycerol as substrate assessed as arachidonic acid release at 10 uM after 60 mins by reverse phase HPLC with UV-detection method
[3] = Metabolic stability in rat liver S9 fractions assessed as remaining compound after 30 mins by reverse phase HPLC with UV-detection method in presence of NADPH; format: ADME, subcellular, Liver S9 fraction; conditions: read-out: Stability
[4] = Metabolic stability in porcine plasma assessed as remaining compound at […] after 30 mins by reverse phase HPLC with UV-detection method; format: ADME, cell-free, Sus scrofa; conditions: pig, read-out: Stability
[5] = molecular target: T3, Fatty-acid amide hydrolase 1 (Rattus norvegicus) (UniProt P97612); test: as §1, with “release at 10 uM” for “release”
T3 sequence (whole entry): T1 sequence (P97612 whole entry)

| SMILES | IC50 [1] [nM] | inhibition (Sus scrofa) | other results |
| --- | --- | --- | --- |
| Cc1c(C#N)c(-c2ccccc2)c(-c2ccccc2)n1CCCCCCNC(=O)Oc1ccccc1 | 8700 | – | – |
| O=C(NCCCCCCn1ncc2ccccc21)Oc1ccccc1 | 920 | – | – |
| Cc1cc(-c2ccccc2)c(-c2ccccc2)n1CCCCNC(=O)Oc1ccccc1 | 6200 | – | – |
| Cc1cc(-c2ccccc2)c(-c2ccccc2)n1CCCCCCNC(=O)Oc1ccccc1 | 2600 | – | – |
| O=C(NCCCCn1ccc2ccccc21)Oc1ccccc1 | 960 | inactive | inhibition [2]: inactive |
| O=C(NCCCCCCCn1ccc2ccccc21)Oc1ccccc1 | 90 | inactive | inhibition [2]: inactive |
| O=C(NCCCCCCn1cnc2ccccc21)Oc1ccccc1 | 290 | – | – |
| O=C(NCCCCCCn1c(-c2ccccc2)c(-c2ccccc2)c2ccccc21)Oc1ccccc1 | 4700 | – | – |
| O=C(NCCCCCCn1ccc2ccccc21)Oc1ccccc1 | 250 | inactive | inhibition [2]: inactive |
| O=C(NCCCCCCn1cc(-c2ccccc2)c2ccccc21)Oc1ccccc1 | 4900 | – | – |
| O=C(NCCCCCCn1nnc2ccccc21)Oc1ccccc1 | 810 | – | – |
| O=C(NCCCCCCn1c(-c2ccccc2)cc2ccccc21)Oc1ccccc1 | 520 | – | – |
| Cc1c(-c2ccccc2)cc(-c2ccccc2)n1CCCCCCNC(=O)Oc1ccccc1 | 460 | – | – |
| Cc1nc(-c2ccccc2)c(-c2ccccc2)n1CCCCCCNC(=O)Oc1ccccc1 | 350 | – | – |
| O=C(NCCCCCn1ccc2ccccc21)Oc1cccnc1 | 3.6 | inactive | remaining at 0.5 h [3]: 43%; remaining at 0.5 h [4]: 0% |
| O=C(NCCCCCn1ccc2ccccc21)Oc1ccccc1 | 94 | inactive | inhibition [2]: inactive |
| O=C(NCCCCCCn1ccc2ccccc21)Oc1cccnc1 | 5.2 | inactive | remaining at 0.5 h [3]: 47%; remaining at 0.5 h [4]: 0% |
| Cc1cc(-c2ccccc2)c(-c2ccccc2)n1CCNC(=O)Oc1ccccc1 | – | – | inhibition [5]: inactive |
| CC(=O)c1c(-c2ccccc2)c(-c2ccccc2)n(CCCCCCNC(=O)Oc2ccccc2)c1C | > 10000 | – | inhibition [5]: 33% |
| COC(=O)c1c(-c2ccccc2)c(-c2ccccc2)n(CCCCCCNC(=O)Oc2ccccc2)c1C | > 10000 | – | inhibition [5]: 21% |
| NC(=O)c1cccc(-c2cccc(OC(=O)NC3CCCCC3)c2)c1 [URB-597] | – | inactive | remaining at 0.5 h [3]: 13%; remaining at 0.5 h [4]: 76% |
| O=C(NCCCCCCCCn1ccc2ccccc21)Oc1ccccc1 | 240 | inactive | inhibition [2]: inactive |
| Cc1ccc(-c2ccccc2)n1CCCCCCNC(=O)Oc1ccccc1 | 310 | – | – |
